Assay results: the NIST ThermoML archive (doi:10.1016/j.fluid.2014.12.040)

Assay: xn = mol fraction of the nth substance listed
Conditions: for surface tension liquid-gas: Wilhelmy-plate method; for mass density: 100 kPa, Liquid, Vibrating tube method

CC(O)CO (stereo not given) [1,2-propanediol] + O
Conditions | mass density, 298.15 K [kg/m3] | mass density, 308.15 K [kg/m3] | mass density, 318.15 K [kg/m3] | mass density, 328.15 K [kg/m3] | surface tension liquid-gas, 298.15 K [mN/m] | surface tension liquid-gas, 308.15 K [mN/m] | surface tension liquid-gas, 318.15 K [mN/m] | surface tension liquid-gas, 328.15 K [mN/m]
x1 = 0.05 | 1011.79 | 1007.53 | 1002.61 | 997.16 | 56.18 | 54.93 | 53.89 | 52.6
x1 = 0.1 | 1022.73 | 1017.48 | 1011.69 | 1005.39 | 50.94 | 49.9 | 48.9 | 47.83
x1 = 0.15 | 1030.33 | 1024.23 | 1017.73 | 1010.88 | 47.41 | 46.53 | 45.71 | 44.66
x1 = 0.2 | 1035.27 | 1028.47 | 1021.65 | 1014.32 | 45.19 | 44.36 | 43.45 | 42.52
x1 = 0.25 | 1038.27 | 1031.17 | 1023.85 | 1016.27 | 43.64 | 42.89 | 42.15 | 41.17
x1 = 0.3 | 1039.85 | 1032.55 | 1025.01 | 1017.25 | 42.6 | 41.92 | 41.19 | 40.38
x1 = 0.35 | 1040.55 | 1033.05 | 1025.42 | 1017.54 | 41.43 | 40.86 | 40.19 | 39.49
x1 = 0.4 | 1040.6 | 1033.02 | 1025.34 | 1017.47 | 40.47 | 39.78 | 39.24 | 38.57
x1 = 0.45 | 1040.28 | 1032.76 | 1025.05 | 1017.1 | 39.44 | 38.89 | 38.36 | 37.8
x1 = 0.5 | 1039.83 | 1032.3 | 1024.54 | 1016.59 | 38.76 | 38.27 | 37.73 | 37.19
x1 = 0.55 | 1039.24 | 1031.7 | 1023.93 | 1016 | 37.95 | 37.5 | 37.07 | 36.55
x1 = 0.6 | 1038.53 | 1031.03 | 1023.29 | 1015.39 | 37.4 | 36.94 | 36.63 | 36.15
x1 = 0.65 | 1037.84 | 1030.31 | 1022.58 | 1014.69 | 36.98 | 36.57 | 36.15 | 35.75
x1 = 0.7 | 1037.09 | 1029.56 | 1021.87 | 1014 | 36.8 | 36.35 | 35.89 | 35.53
x1 = 0.75 | 1036.33 | 1028.81 | 1021.11 | 1013.3 | 36.62 | 36.24 | 35.79 | 35.32
x1 = 0.8 | 1035.57 | 1028.06 | 1020.37 | 1012.54 | 36.44 | 36.1 | 35.66 | 35.17
x1 = 0.85 | 1034.81 | 1027.32 | 1019.61 | 1011.8 | 36.26 | 35.94 | 35.52 | 35.04
x1 = 0.9 | 1034.08 | 1026.59 | 1018.9 | 1011.06 | 36.08 | 35.76 | 35.4 | 34.88
x1 = 0.95 | 1033.35 | 1025.88 | 1018.19 | 1010.37 | 35.9 | 35.52 | 35.14 | 34.75
x1 = 1 | 1032.69 | 1025.21 | 1017.51 | 1009.78 | 35.74 | 35.35 | 34.96 | 34.6
